Measured values as given in US7375086B2, “Modulators of Nod2 signaling” (The Regents of the University of Michigan, priority 2000, dated 2008).

What was measured:
[1] = tested on: Nod2-Fpk3; assay: Enforced oligomerization of Fpk3-Nod2 chimeric proteins, NF-κB reporter in HEK293T cells; assay type: cell-based, human
Description: HEK293T cells were transfected with of control plasmid (−) or plasmids producing the indicated Myc-tagged Fpk3Nod2 proteins. Extracts from equal number of cells was immunoprecipitated and immunoblotted with rabbit anti-Myc antibody. […] 2×10^5 HEK293T cells were transfected with 1 ng of the indicated plasmids in the presence of pBVIx-luc and pEF-BOS-β-gal. 8 hr post-transfection, cells were treated with 500 nM AP1510 (black bars) or left untreated (white bars). 24 hr post-transfection, the κB-dependent transcription was determined as described below. Values represent mean ±SD of triplicate cultures.
In the case of Nod1, its oligomerization appears to promote proximity of RICK and NF-κB activation. To test a similar role for Nod2, plasmids were constructed to express chimeric proteins in which wt or Nod2 mutants were fused to three tandem repeated dimerization domains of Fpk (Fpk3), which can be oligomerized by the cell-permeable ligand AP1510 (MacCorkle et al., Proc. Nat. Acad. Sci. U. S. A. 95: 3655-3660 [1998]). […] Because wt Nod2 alone induces NF-KB activation, we expressed suboptimal amounts of the chimeric Fpk3-Nod2 constructs into HEK293T cells. […] Similarly, NF-κB activation induced by a Nod2 P-loop mutant lacking the LRRs (K305RALRR), which have reduced ability to induce NF-κB activation, was enhanced by enforced oligomerization (FIG. 7C). […]

[2] = tested on: NF-κB; assay: NF-κB binding activity by EMSA in nuclear extracts of PBMNC; assay type: cell-based, human; conditions: PBMNC nuclear extracts, EMSA
Description: FIGS. 20C and D show PBMNC analyzed for expression of IL-1β (C) and A1 (D) transcripts by quantitative RT-PCR.
Genotyping was performed using a ddNTP primer extension system. Nuclear extracts from LPS-stimulated cells were pre-incubated with antibody specific for p50 subunit of NF-κB to monitor the size of the NF-κB-DNA complex. cDNA was amplified with specific primers for human IL-1β, glyceraldehyde-3-phosphate-dehydrogenase (GAPDH) as described (5) and A1 (5′-[…]-3′ (SEQ ID NO: 53) and 5′-[…]-3′ (SEQ ID NO:54)). The levels of IL-1β and A1 transcripts normalized to that of GAPDH were expressed relative to those in untreated cells that were considered as baseline. Specificity of the desired PCR products was determined by melting curve analysis. Histograms represent the mean ±S.D. of triplicate analyses.
The NOD2 variants associated with Crohn's disease, R702W, G908R and L1007fsinsC, occur on the same haplotype background, which includes the common P268S polymorphism (Hugot et al., Nature 411:599 [2001]; Ogura et al., Nature 411:603 [2001]). To compare the ability of normal and mutant NOD2 proteins to induce NF-κB activity in response to MDP, the NOD2 proteins were expressed in cells and evaluated in a functional assay. […] The role of NOD2 in the recognition of MDP by primary cells from normal and Crohn's disease patients was next determined. A panel of healthy and Crohn's disease individuals were genotyped for the disease-associated NOD2 alleles and two individuals (one without clinical evidence of disease and one individual with Crohn's disease) who were homozygous for the loss-of-function L1007fsinsC mutation were identified (FIG. 20A). The identification of apparently healthy individuals homozygous for L1007fsinsC is expected in that the penetrance of the L1007fsinsC mutation is not complete (Hugot et al., supra; Ogura et al., supra; Hampe et al., Lancet 357:1925 [2001]; Ahmad et al., Gastroenterology 122:854 [2002]). Peripheral blood mononuclear cells (PBMNC) that are known to express NOD2 were isolated, incubated with MDP or LPS and NF-κB activation was assessed in nuclear extracts by an electrophoretic mobility shift assay (EMSA).

[3] = target: T1, Nod2 (Homo sapiens, UniProt Q9HC29, R703H); assay: NF-κB reporter assay in HEK293T/HEK293 cells expressing Nod2; assay type: cell-based; conditions: 100 ng/ml (FIG. 18C)
T1 construct: ligated to generate an unique cDNA containing the entire open reading frame of Nod2; expressed in transfected cells; host or cells: HEK293T

[4] = target: T2, TLR2 (Homo sapiens, UniProt O60603); assay: NF-κB reporter assay in HEK293 cells stably transfected with TLR2; assay type: cell-based; conditions: MDP 100 ng/ml, sBLP 1000 ng/ml
T2 construct: expressed in transfected cells
Description: Molecules with two copies (2mer) or four copies (4mer) of GlcNAc-MurNAc with attached L-Ala-D-isoGln and their counterparts lacking dipeptide (2mer-aa, 4mer-aa) were synthesized as described (Inamura et al., Tetrahedron Lett. 42:7613 [2001]). Eight hours post-transfection, the indicated amount of each compound was added to the cells and the ability of each compound to activate NF-κB was determined as above. The ability of MDP (100 ng/ml) and sBLP (1000 ng/ml) to activate NF-κB was determined by transfection of 0.3 ng pcDNA3-Nod2 (Nod2) or control plasmid (−) into HEK293 cells or in HEK293 cells stably transfected with TLR2 (TLR2) or with control plasmid (−) and reporter pBxIV-luc and pEF-BOS-β-gal plasmids. Values represent the mean of normalized data ±S.D. of triplicate cultures.

[5] = tested on: NF-κB; assay: NF-κB luciferase reporter assay in HEK293T cells transfected with control plasmid; assay type: cell-based, human
Description: Induction of NF-κB activation was determined in triplicate cultures of HEK293T cells transfected with 30 ng of Nod2 plasmid (open bars) or stimulated with 10 ng/ml of TNFα for 4 h (closed bars) and 70 ng of I-κBα S32A/S36A, IKKα K44A, IKKβ K44A, RICK (406-540) or RIP (558-671) expression plasmid in the presence of pBVIx-Luc and pEF-BOS-β-gal. Results are presented as a percent of values obtained with Nod2 and control plasmid. In the experiment shown, Nod2 and TNFα induced 58±8-fold and 14±1-fold activation of NF-κB, respectively. Values represent mean ±SD of triplicate cultures. […] Induction of NF-κB activation was determined from triplicate cultures of I×10^5 HEK293T cells co-transfected with the indicated plasmids and pBVIx-Luc in the presence of control plasmid pEF-BOS-β-gal. […]
8 hr post-transfection, cells were treated with 10 μg/ml of each pathogen product, lipoteichoic acid (LTA) or peptidoglycan (PGN) from Staphylococcus aureus, lipopolysaccharide (LPS) from Escherichia coli 055:B5, mannan from Candida albicans 20A, synthetic soluble bacterial lipoprotein (SBLP) or left untreated (Control). 24 hr post-transfection, κB-dependent transcription was determined by luciferase activity relative and values normalized to β-galactosidase in triplicate cultures. […] Twenty-four hr post-transfection, κB-dependent transcription was determined as described above. […]

[6] = tested on: NF-κB; assay: NF-κB reporter assay in parental Rat1 fibroblasts; assay type: cell-based, rat
Description: Induction of NF-κB activation was determined in triplicate cultures of HEK293T cells transfected with 30 ng of Nod2 plasmid (open bars) or stimulated with 10 ng/ml of TNFα for 4 h (closed bars) and 70 ng of I-κBα S32A/S36A, IKKα K44A, IKKβ K44A, RICK (406-540) or RIP (558-671) expression plasmid in the presence of pBVIx-Luc and pEF-BOS-β-gal. Results are presented as a percent of values obtained with Nod2 and control plasmid. In the experiment shown, Nod2 and TNFα induced 58±8-fold and 14±1-fold activation of NF-κB, respectively. Values represent mean ±SD of triplicate cultures. […] Induction of NF-κB activation was determined from triplicate cultures of I×10^5 HEK293T cells co-transfected with the indicated plasmids and pBVIx-Luc in the presence of control plasmid pEF-BOS-β-gal. Values represent mean ±SD of triplicate cultures.
NF-κB activation assays. NF-κB activation assays were performed as described (Inohara et al., [1999] supra, Inohara et al., [2000], supra). […] 24 hr post-transfection, cell extracts were prepared and its relative luciferase activity was measured as described (Inohara et al., [1999] supra, Inohara et al., [2000], supra). […]

T1 sequence (Q9HC29 whole entry R703H): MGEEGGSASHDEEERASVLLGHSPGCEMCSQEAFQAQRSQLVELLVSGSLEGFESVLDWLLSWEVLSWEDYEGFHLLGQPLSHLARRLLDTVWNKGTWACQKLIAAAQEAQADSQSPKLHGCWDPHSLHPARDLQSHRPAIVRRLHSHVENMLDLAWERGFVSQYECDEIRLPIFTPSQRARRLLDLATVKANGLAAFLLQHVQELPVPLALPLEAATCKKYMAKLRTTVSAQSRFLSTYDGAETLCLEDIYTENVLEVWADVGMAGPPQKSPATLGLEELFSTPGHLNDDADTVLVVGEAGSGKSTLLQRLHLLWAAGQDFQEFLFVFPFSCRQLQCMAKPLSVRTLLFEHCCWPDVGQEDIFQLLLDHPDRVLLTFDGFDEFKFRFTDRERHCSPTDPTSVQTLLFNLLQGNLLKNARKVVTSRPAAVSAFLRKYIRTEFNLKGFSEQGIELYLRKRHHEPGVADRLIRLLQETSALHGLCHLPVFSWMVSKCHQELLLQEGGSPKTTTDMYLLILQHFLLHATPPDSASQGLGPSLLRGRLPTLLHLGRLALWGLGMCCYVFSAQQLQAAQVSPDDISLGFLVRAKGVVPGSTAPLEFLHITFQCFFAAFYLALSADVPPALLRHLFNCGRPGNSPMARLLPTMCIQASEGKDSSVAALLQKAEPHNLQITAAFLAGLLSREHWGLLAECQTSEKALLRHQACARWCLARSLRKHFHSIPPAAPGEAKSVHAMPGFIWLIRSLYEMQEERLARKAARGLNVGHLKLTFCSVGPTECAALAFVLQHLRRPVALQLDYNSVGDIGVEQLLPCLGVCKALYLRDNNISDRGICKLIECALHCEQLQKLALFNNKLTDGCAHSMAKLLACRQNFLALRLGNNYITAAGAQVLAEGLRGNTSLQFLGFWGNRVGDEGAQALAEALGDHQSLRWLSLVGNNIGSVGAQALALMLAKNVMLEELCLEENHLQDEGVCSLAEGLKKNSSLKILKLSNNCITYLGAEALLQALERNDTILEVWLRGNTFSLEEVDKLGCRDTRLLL
T2 sequence (O60603 21-784, species assumed): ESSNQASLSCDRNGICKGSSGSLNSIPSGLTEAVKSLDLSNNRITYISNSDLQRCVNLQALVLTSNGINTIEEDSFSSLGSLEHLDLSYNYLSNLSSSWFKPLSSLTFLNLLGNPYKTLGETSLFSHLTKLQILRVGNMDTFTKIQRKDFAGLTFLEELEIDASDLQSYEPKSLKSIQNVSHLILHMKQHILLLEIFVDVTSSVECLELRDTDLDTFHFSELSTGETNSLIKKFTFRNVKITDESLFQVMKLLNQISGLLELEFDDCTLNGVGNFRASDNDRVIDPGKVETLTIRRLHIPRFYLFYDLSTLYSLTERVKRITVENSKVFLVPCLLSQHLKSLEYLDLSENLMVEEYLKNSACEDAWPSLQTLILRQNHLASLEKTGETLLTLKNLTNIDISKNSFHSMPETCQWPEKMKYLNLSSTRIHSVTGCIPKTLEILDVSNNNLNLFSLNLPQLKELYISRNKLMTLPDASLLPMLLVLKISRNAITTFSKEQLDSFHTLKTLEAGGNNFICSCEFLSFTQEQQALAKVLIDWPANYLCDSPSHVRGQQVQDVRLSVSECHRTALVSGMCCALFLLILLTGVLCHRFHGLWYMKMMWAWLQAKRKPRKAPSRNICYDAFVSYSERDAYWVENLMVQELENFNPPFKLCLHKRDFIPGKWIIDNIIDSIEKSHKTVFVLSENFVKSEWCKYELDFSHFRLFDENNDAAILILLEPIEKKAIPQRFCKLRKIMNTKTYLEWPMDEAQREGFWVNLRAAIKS

For `CCC(C)(C)C(=O)C(=O)N1CCCC[C@H]1C(=O)O[C@H](CCc1ccc(OC)c(OC)c1)c1cccc(OCC(=O)NCCNC(=O)COc2cccc([C@@H](CCc3ccc(OC)c(OC)c3)OC(=O)[C@@H]3CCCCN3C(=O)C(=O)C(C)(C)CC)c2)c1` [AP1510], the “NF-κB activation by Nod2-Fpk3 upon ligand” value ([1]; 500 nM AP1510, suboptimal amounts (1 ng) of plasmid) was “induced NF-KB activation in a ligand-dependent manner” and the “NF-κB activation by Nod2-Fpk3 construct lacking the LRRs” value ([1]; 500 nM AP1510 or untreated) was “induced NF-κB activation in the absence and presence of AP1510”.
In the case of `Cc1ccc(S(=O)(=O)/C=C/C#N)cc1` [Bay11-7082], the “inhibition of the DNA binding complex induced by MDP” value [2] is reported as “inhibited”.
In the case of `CC(=O)NC1C(O)OC(CO)C(O)C1OC(C)C(=O)NC(C)C(=O)NC(CCC(=O)O)C(N)=O` [MurNAc-L-Ala-L-isoGln], the “ability to stimulate NOD2 (stereoselectivity)” value [3] is reported as “eliminated the ability of MDP to stimulate NOD2”.
PaM3CysSerLyS4 [SBLP] was tested, and the “TLR2-mediated cellular response (NF-κB)” value [4] was “mediated a cellular response” and the “induction of NF-κB reporter gene activity” value ([5]; HEK293T cells transfected with control plasmid, 10 μg/ml of each pathogen product) was “No significant induction of reporter gene activity”.
TNFα was tested, and the “NF-κB activity in parental Rat1 cells” value [6] was “induced NF-κB activity” and the “activation of NF-κB” value ([5]; HEK293T cells stimulated with 10 ng/ml of TNFα for 4 h) was 14±1 fold.
